{"source": "patent US20080031982A1", "about": "(Metaproteomics, LLC, priority 2006, published 2008)", "test_in_all_cases": "KinaseProfiler Assay", "key": {"GSK3α": {"molecular_target": "GSK3α (Homo sapiens, UniProt P49840)", "sequence (P49840 whole entry)": "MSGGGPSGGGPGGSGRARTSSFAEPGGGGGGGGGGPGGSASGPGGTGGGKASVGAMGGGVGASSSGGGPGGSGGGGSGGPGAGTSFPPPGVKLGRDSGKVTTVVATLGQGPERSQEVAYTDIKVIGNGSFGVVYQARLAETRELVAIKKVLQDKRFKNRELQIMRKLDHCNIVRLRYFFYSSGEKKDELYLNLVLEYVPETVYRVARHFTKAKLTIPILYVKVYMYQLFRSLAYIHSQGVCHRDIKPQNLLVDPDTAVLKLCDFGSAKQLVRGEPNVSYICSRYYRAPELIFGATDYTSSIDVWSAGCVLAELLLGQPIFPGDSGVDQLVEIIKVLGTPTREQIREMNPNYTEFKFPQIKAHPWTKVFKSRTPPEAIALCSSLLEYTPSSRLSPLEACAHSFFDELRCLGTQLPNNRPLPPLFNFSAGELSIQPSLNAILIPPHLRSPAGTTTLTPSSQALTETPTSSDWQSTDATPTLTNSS"}, "IGF-1R": {"molecular_target": "IGF-1R (Homo sapiens, UniProt P08069)"}, "PKCβII": {"molecular_target": "PKCβII (Homo sapiens, UniProt P05771)", "sequence (P05771 1-673 isoform P05771-2)": "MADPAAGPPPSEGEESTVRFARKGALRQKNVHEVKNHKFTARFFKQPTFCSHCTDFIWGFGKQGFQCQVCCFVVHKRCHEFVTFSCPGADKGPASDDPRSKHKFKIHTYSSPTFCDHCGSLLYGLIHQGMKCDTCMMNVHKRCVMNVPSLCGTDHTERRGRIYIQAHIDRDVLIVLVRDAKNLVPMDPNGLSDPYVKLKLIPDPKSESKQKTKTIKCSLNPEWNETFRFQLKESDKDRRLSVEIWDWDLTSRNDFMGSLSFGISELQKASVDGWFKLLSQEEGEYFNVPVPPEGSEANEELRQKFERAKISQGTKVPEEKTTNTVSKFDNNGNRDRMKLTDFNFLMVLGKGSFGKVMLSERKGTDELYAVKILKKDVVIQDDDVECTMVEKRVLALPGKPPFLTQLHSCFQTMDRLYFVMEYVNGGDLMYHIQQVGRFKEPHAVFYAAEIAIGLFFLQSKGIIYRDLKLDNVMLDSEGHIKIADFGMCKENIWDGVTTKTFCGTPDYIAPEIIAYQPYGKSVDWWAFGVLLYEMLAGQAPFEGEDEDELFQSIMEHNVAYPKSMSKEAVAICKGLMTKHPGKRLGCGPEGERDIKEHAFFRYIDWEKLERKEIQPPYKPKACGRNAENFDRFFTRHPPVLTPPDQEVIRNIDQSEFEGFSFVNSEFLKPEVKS"}, "cKit(D816H)": {"molecular_target": "cKit(D816H) (Homo sapiens, UniProt P10721, D816H)"}, "PKA": {"molecular_target": "PKA (Homo sapiens, UniProt P17612)"}, "CDK2/cyclinA": {"molecular_target": "CDK2/cyclinA (Homo sapiens, UniProt P24941)"}, "Ron": {"molecular_target": "Ron (Homo sapiens, UniProt Q04912)", "sequence (Q04912 25-1400)": "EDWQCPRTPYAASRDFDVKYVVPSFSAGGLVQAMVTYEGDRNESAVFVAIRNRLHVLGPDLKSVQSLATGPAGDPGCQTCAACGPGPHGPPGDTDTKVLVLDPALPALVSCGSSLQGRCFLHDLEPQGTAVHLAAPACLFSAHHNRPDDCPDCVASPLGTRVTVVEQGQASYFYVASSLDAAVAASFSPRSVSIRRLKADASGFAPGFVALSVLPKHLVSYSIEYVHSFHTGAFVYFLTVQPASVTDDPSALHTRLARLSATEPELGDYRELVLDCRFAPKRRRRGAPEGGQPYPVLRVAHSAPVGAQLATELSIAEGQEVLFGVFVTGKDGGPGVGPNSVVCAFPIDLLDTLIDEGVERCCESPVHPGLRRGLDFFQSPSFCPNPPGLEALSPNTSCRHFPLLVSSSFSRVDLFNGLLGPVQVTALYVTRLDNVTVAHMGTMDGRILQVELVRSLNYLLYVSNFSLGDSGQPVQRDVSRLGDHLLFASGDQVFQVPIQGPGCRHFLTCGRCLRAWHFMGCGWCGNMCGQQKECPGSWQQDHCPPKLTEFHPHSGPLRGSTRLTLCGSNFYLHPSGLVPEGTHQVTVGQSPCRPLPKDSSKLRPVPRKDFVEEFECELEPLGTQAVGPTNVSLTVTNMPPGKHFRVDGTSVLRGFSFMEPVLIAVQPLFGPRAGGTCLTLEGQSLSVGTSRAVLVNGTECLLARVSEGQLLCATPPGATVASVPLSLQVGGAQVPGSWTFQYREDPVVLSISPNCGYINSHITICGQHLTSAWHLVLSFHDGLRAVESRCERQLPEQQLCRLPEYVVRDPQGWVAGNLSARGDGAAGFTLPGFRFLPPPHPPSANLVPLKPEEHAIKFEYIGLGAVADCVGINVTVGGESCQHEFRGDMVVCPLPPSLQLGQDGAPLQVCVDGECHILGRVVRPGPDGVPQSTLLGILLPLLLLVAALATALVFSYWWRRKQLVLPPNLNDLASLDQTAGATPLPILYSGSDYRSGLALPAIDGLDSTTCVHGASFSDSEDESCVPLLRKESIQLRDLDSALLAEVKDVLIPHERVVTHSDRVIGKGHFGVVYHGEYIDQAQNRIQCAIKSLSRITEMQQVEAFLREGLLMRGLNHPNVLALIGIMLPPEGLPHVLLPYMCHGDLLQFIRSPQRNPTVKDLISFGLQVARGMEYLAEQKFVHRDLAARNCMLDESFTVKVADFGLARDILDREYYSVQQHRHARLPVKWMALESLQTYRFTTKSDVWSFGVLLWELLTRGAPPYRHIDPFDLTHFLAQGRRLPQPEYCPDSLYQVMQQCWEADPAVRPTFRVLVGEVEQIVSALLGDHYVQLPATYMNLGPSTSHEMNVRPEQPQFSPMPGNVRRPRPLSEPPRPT"}, "IR": {"molecular_target": "IR (Homo sapiens, UniProt P06213)", "sequence (P06213 28-1382)": "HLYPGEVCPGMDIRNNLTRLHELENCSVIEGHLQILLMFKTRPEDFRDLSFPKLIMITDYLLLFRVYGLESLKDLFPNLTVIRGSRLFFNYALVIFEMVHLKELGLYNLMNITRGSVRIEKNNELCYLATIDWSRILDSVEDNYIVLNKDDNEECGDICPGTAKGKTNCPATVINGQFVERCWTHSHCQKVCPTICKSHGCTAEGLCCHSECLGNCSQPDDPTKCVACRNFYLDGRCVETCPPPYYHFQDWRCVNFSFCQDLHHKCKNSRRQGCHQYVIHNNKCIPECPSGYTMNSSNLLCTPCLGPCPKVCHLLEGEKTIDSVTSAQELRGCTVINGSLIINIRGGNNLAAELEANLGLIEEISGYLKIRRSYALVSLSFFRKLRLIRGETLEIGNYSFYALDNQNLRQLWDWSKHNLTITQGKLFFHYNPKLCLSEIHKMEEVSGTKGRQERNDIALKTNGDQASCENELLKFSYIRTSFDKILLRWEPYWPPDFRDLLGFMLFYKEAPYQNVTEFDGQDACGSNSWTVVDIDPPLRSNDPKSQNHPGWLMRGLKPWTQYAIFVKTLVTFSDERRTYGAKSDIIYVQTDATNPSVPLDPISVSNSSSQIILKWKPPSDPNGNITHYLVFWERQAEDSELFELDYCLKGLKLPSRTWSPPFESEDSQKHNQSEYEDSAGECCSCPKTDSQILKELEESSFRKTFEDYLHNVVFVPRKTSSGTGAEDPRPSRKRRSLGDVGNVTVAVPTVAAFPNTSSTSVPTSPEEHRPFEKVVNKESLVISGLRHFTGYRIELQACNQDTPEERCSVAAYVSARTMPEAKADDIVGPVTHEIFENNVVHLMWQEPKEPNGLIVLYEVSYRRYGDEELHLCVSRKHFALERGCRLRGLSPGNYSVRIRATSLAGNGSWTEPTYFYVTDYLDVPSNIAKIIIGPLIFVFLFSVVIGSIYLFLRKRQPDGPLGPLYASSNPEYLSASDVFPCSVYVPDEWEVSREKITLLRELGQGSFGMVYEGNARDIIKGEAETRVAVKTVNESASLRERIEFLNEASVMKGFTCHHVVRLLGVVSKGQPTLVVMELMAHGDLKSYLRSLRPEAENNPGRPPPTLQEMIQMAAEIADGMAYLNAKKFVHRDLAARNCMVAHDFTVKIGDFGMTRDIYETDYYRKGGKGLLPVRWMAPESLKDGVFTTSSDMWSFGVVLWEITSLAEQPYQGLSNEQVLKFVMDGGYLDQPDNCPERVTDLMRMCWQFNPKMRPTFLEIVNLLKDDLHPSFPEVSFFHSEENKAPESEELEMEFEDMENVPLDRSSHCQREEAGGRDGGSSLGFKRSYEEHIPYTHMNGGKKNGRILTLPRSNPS"}, "JAK3": {"molecular_target": "T1, JAK3 (Homo sapiens, UniProt P52333)", "T1 sequence (P52333 1-1124)": "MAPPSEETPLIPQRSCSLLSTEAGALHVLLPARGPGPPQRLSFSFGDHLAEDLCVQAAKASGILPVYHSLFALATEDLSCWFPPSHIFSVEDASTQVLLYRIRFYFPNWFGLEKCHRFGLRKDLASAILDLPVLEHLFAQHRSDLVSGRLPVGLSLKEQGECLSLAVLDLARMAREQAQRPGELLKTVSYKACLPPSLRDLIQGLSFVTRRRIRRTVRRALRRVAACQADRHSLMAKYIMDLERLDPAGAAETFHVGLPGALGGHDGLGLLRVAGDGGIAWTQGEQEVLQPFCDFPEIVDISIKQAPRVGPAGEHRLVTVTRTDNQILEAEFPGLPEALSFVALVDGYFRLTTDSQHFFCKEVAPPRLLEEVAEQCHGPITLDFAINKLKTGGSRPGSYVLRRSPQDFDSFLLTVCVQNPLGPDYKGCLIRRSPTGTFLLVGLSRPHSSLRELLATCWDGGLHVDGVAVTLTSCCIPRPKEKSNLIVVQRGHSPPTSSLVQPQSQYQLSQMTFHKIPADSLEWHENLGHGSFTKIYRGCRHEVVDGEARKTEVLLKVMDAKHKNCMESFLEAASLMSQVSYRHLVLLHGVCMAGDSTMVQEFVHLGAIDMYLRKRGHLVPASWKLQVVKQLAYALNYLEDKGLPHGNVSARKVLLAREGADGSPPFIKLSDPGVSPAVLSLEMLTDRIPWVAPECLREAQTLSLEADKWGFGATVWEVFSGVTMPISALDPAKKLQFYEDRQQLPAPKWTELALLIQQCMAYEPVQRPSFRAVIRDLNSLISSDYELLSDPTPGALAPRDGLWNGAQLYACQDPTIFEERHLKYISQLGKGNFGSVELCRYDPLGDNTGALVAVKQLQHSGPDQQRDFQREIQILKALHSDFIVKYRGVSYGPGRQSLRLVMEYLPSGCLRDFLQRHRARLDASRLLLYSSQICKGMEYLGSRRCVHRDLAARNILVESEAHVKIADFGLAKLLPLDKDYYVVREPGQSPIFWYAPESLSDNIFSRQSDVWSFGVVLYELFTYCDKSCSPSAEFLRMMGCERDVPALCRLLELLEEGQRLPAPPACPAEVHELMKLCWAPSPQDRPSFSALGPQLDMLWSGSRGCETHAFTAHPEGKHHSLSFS"}, "CDK6/cyclinD3": {"molecular_target": "CDK6/cyclinD3 (Homo sapiens, UniProt Q00534)"}, "EphA2": {"molecular_target": "EphA2 (Homo sapiens, UniProt P29317)", "sequence (P29317 24-976)": "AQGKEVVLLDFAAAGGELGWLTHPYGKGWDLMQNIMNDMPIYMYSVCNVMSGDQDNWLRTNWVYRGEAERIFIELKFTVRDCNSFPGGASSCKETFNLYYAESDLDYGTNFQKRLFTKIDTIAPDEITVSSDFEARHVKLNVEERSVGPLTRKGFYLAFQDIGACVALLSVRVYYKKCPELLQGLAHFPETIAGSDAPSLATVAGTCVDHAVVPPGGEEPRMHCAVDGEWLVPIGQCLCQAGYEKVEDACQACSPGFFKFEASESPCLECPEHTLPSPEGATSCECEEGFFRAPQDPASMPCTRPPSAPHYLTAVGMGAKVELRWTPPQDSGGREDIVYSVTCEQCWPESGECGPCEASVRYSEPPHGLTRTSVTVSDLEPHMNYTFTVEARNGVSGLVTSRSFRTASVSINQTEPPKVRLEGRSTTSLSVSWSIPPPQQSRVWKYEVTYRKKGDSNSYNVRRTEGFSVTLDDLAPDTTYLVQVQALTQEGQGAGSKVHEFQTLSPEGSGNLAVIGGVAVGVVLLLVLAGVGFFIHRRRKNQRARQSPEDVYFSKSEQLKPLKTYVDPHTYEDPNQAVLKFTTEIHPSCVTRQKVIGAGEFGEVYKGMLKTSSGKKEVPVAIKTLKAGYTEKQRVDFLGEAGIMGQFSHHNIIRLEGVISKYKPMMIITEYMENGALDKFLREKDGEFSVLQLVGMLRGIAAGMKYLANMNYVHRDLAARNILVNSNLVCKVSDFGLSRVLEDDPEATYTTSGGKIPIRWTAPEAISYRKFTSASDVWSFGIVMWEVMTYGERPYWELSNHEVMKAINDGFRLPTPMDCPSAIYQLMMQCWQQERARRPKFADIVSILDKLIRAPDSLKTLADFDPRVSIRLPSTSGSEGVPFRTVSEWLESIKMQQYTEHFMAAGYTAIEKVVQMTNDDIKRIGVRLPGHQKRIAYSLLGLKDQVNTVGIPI"}}, "data": [{"smiles": "COc1cc(O)c(CC=C(C)C)c(O)c1C(=O)/C=C/c1ccc(O)cc1", "note": "[Xanthohumol, xanthohumol]", "values": [{"measurement": "Kinase activity, % of Control", "setting": "GSK3α; 1 ug/ml", "value": "102 % of Control"}, {"measurement": "Kinase activity, % of Control", "setting": "GSK3α; 25 ug/ml", "value": "11 % of Control"}, {"measurement": "Kinase activity, % of Control", "setting": "GSK3α; 50 ug/ml", "value": "−4 % of Control"}, {"measurement": "Kinase activity, % of Control", "setting": "IGF-1R; 1 ug/ml", "value": "107 % of Control"}, {"measurement": "Kinase activity, % of Control", "setting": "IGF-1R; 25 ug/ml", "value": "129 % of Control"}, {"measurement": "Kinase activity, % of Control", "setting": "IGF-1R; 50 ug/ml", "value": "139 % of Control"}, {"measurement": "Kinase activity, % of Control", "setting": "PKCβII; 1 ug/ml", "value": "108 % of Control"}, {"measurement": "Kinase activity, % of Control", "setting": "PKCβII; 5 ug/ml", "value": "108 % of Control"}, {"measurement": "Kinase activity, % of Control", "setting": "PKCβII; 25 ug/ml", "value": "71 % of Control"}, {"measurement": "Kinase activity, % of Control", "setting": "PKCβII; 50 ug/ml", "value": "79 % of Control"}, {"measurement": "Kinase activity, % of Control", "setting": "cKit(D816H); 1 ug/ml", "value": "94 % of Control"}, {"measurement": "Kinase activity, % of Control", "setting": "cKit(D816H); 5 ug/ml", "value": "45 % of Control"}, {"measurement": "Kinase activity, % of Control", "setting": "cKit(D816H); 25 ug/ml", "value": "14 % of Control"}, {"measurement": "Kinase activity, % of Control", "setting": "PKA; 1 ug/ml", "value": "105 % of Control"}, {"measurement": "Kinase activity, % of Control", "setting": "PKA; 5 ug/ml", "value": "109 % of Control"}, {"measurement": "Kinase activity, % of Control", "setting": "PKA; 25 ug/ml", "value": "98 % of Control"}, {"measurement": "Kinase activity, % of Control", "setting": "PKA; 50 ug/ml", "value": "21 % of Control"}, {"measurement": "Kinase activity, % of Control", "setting": "CDK2/cyclinA; 1 ug/ml", "value": "107 % of Control"}, {"measurement": "Kinase activity, % of Control", "setting": "CDK2/cyclinA; 5 ug/ml", "value": "96 % of Control"}, {"measurement": "Kinase activity, % of Control", "setting": "CDK2/cyclinA; 25 ug/ml", "value": "57 % of Control"}, {"measurement": "Kinase activity, % of Control", "setting": "CDK2/cyclinA; 50 ug/ml", "value": "6 % of Control"}, {"measurement": "Kinase activity, % of Control", "setting": "Ron; 1 ug/ml", "value": "135 % of Control"}, {"measurement": "Kinase activity, % of Control", "setting": "Ron; 5 ug/ml", "value": "127 % of Control"}, {"measurement": "Kinase activity, % of Control", "setting": "Ron; 25 ug/ml", "value": "60 % of Control"}, {"measurement": "Kinase activity, % of Control", "setting": "Ron; 50 ug/ml", "value": "69 % of Control"}, {"measurement": "Kinase activity, % of Control", "setting": "IR; 1 ug/ml", "value": "120 % of Control"}, {"measurement": "Kinase activity, % of Control", "setting": "IR; 5 ug/ml", "value": "108 % of Control"}, {"measurement": "Kinase activity, % of Control", "setting": "IR; 50 ug/ml", "value": "103 % of Control"}, {"measurement": "Kinase activity, % of Control", "setting": "JAK3; 1 ug/ml", "value": "104 % of Control"}, {"measurement": "Kinase activity, % of Control", "setting": "JAK3; 5 ug/ml", "value": "84 % of Control"}, {"measurement": "Kinase activity, % of Control", "setting": "JAK3; 25 ug/ml", "value": "17 % of Control"}, {"measurement": "Kinase activity, % of Control", "setting": "JAK3; 50 ug/ml", "value": "5 % of Control"}, {"measurement": "Kinase activity, % of Control", "setting": "CDK6/cyclinD3; 1 ug/ml", "value": "110 % of Control"}, {"measurement": "Kinase activity, % of Control", "setting": "CDK6/cyclinD3; 5 ug/ml", "value": "79 % of Control"}, {"measurement": "Kinase activity, % of Control", "setting": "CDK6/cyclinD3; 25 ug/ml", "value": "23 % of Control"}, {"measurement": "Kinase activity, % of Control", "setting": "CDK6/cyclinD3; 50 ug/ml", "value": "7 % of Control"}, {"measurement": "Kinase activity, % of Control", "setting": "EphA2; 1 ug/ml", "value": "124 % of Control"}, {"measurement": "Kinase activity, % of Control", "setting": "EphA2; 25 ug/ml", "value": "121 % of Control"}, {"measurement": "Kinase activity, % of Control", "setting": "EphA2; 50 ug/ml", "value": "52 % of Control"}]}]}
